These results are taken from patent publication US20210101874A1, “MICROBIOCIDAL OXADIAZOLE DERIVATIVES” (SYNGENTA PARTICIPATIONS AG, priority 2017, published 2021).

The test system of data set [1] is Glomerella lagenarium (Colletotrichum lagenarium). Kind of data set: Glomerella lagenarium (Colletotrichum lagenarium) liquid culture / cucumber / preventative (anthracnose). The class given is cell-based. Particulars: Colletotrichum orbiculare; 20 ppm in the applied formulation; conidia in PDB nutrient broth, 24° C.; 3 to 4 days after application; compared to untreated; read-out: disease control (inhibition of growth measured photometrically). Summed up: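 Test compound, diluted from DMSO, was mixed in microtiter wells with fungal conidia taken from cryogenic storage and suspended in PDB nutrient broth. After 3 to 4 days at 24 °C, photometric growth measurement gave antifungal activity as a percentage of the untreated control.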

Data set [2] relates to Puccinia recondita f. sp. Tritici. Put plainly: Puccinia recondita f. sp. tritici / wheat / leaf disc preventative (brown rust). Type of data set: in vivo. As to conditions: foliar, 200 ppm in the applied formulation, wheat leaf segments cv. Kanzler, inoculated 1 day after application, compared to untreated, assessed 7 to 9 days after application, read-out: disease control. Summed up:
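Sprayed at 200 ppm one day ahead of spore inoculation, wheat leaf segments of cultivar Kanzler sat on agar under 19° C., 75% relative humidity and alternating 12-hour light and dark. Efficacy was taken as percent disease control relative to untreated segments after 7 to 9 days.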

A further data set has as its system Phakopsora pachyrhizi. Put plainly: Phakopsora pachyrhizi / soybean / leaf disc preventative (Asian soybean rust). Type of data set: in vivo. Particulars: foliar, 200 ppm in the applied formulation, soybean leaf disks, inoculated one day after application, compared to untreated, assessed 12 to 14 days after application, read-out: disease control. The procedure:
Leaf disks or leaf segments of various plant species are cut from plants grown in a greenhouse. The cut leaf disks or segments are placed in multiwell plates (24-well format) onto water agar. The leaf disks are sprayed with a test solution before (preventative) or after (curative) inoculation. Compounds to be tested are prepared as DMSO solutions (max. 10 mg/ml) which are diluted to the appropriate concentration with 0.025% Tween20 just before spraying. The inoculated leaf disks or segments are incubated under defined conditions (temperature, relative humidity, light, etc.) according to the respective test system. A single evaluation of disease level is carried out 3 to 14 days after inoculation, depending on the pathosystem. Percent disease control relative to the untreated check leaf disks or segments is then calculated.
Soybean leaf disks are placed on water agar in multiwell plates (24-well format) and sprayed with the formulated test compound diluted in water. One day after application leaf discs are inoculated by spraying a spore suspension on the lower leaf surface. After an incubation period in a climate cabinet of 24-36 hours in darkness at 20° C. and 75% rh leaf disc are kept at 20° C. with 12 h light/day and 75% rh. The activity of a compound is assessed as percent disease control compared to untreated when an appropriate level of disease damage appears in untreated check leaf disks (12 to 14 days after application).
The following compounds at 200 ppm in the applied formulation give at least 80% disease control in this test when compared to untreated control leaf disks under the same conditions, which show extensive disease development.

Data set [3] has as its system Puccinia recondita f. sp. Tritici. Kind of data set: Puccinia recondita f. sp. tritici / wheat / leaf disc curative (brown rust). Type of data set: in vivo. Particulars: foliar, 200 ppm in the applied formulation, wheat leaf segments cv. Kanzler, applied 1 day after inoculation, compared to untreated, assessed 6 to 8 days after application, read-out: disease control. In a few lines: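 Compound applied 1 day after spore inoculation of wheat cv. Kanzler leaf segments on agar (dark, 19 °C, 75% RH before treatment). After further incubation under 12 h light/12 h dark at 19 °C and 75% RH, disease control relative to untreated segments rated 6–8 days post-application.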

The term inhibition denotes the share of the control response that was lost under treatment. Broadly, the melting point is the temperature of the solid-liquid transition.

`CN(C)S(=O)(=O)NCc1ccc(-c2noc(C(F)(F)F)n2)cc1` [Compound 2.3, 3-[4-[(dimethyl-sulfamoylamino)methyl]phenyl]-5-(trifluoromethyl)-1,2,4-oxadiazole] gave a melting point of 105 to 107 °C. Also, the inhibition at 20 ppm in data set [1] is not below 80%. In addition, the pest or weed control at 200 ppm in data set [2] was not below 80%. For the same compound, in the data set with Phakopsora pachyrhizi, the pest or weed control at 200 ppm was not below 80%. In addition, the pest or weed control at 200 ppm in data set [3] was not below 80%.
Consider `O=S(=O)(NCc1ccc(-c2noc(C(F)(F)F)n2)cc1)C1CC1` [Compound 3.2, N-[[4-[5-(trifluoromethyl)-1,2,4-oxadiazol-3-yl]phenyl]methyl] cyclopropanesulfon-amide], for which the melting point was in the range of 130 to 134 °C. Also, in data set [1], the inhibition at 20 ppm is not below 80%. Moreover, the pest or weed control at 200 ppm in data set [2] is not below 80%. Besides, the pest or weed control at 200 ppm in the data set on Phakopsora pachyrhizi was not below 80%. Besides, the pest or weed control at 200 ppm in data set [3] was not below 80%.
For `O=S(=O)(CC1CC1)NCc1ccc(-c2noc(C(F)(F)F)n2)cc1` [Compound 3.3, 1-cyclopropyl-N-[[4-[5-(trifluoromethyl)-1,2,4-oxadiazol-3-yl]phenyl]methyl] methanesulfonamide], the melting point was 140 to 144 °C. Besides, the inhibition at 20 ppm in data set [1] was not below 80%. For the same compound, in data set [2], the pest or weed control at 200 ppm is not below 80%. Further, in the data set with Phakopsora pachyrhizi, the pest or weed control at 200 ppm is not below 80%. In addition, in data set [3], the pest or weed control at 200 ppm is not below 80%.
Regarding `O=S(=O)(CC1CCOC1)NCc1ccc(-c2noc(C(F)(F)F)n2)cc1` (centres unmarked) [Compound 3.4, 1-tetrahydrofuran-3-yl-N-[[4-[5-(trifluoromethyl)-1,2,4-oxadiazol-3-yl]phenyl]methyl] methanesulfonamide], the melting point is 117 to 122 °C. Moreover, the inhibition at 20 ppm in data set [1] is not below 80%. In addition, in data set [2], the pest or weed control at 200 ppm is not below 80%. The pest or weed control at 200 ppm in the data set with Phakopsora pachyrhizi is not below 80%. Besides, the pest or weed control at 200 ppm in data set [3] was not below 80%.
